Values joined by “and” are separate entries in the source; they are usually repeats but may differ in a detail not shown here. Equal values may be shown once. Read-outs that look alike come from different tables or passages of the source. Values belong to the molecule of their own block, whether it stands above or below them.
Tests used:
[1] = system: Pseudomonas aeruginosa; experiment: Biocide efficiency (B.E.) of immobilised biocides in recirculating column test; format: cell-based
[2] = physchem
[3] = system: Pseudomonas aeruginosa; experiment: Recirculating column test of immobilised biocide (active beads), viable bacterial counts / growth curve; format: cell-based; details: active beads on Amberlite XAD-4 or XAD-2, 10x1 cm column, after 24 hours, FIG. 2
[4] = Partition coefficients between octanol and water by UV/visible absorption
[5] = Presence or absence of free biocide in filter-sterilised culture after contact with active beads (MS and/or HPLC; leaching); format: physicochemical
[6] = column length 10 cm, biocide immobilised on Amberlite XAD-4, 24 h, 30° C., 13.5 ml/min

logP [2]: 0.18
SMILES: O=[N+]([O-])C(Br)(CO)CO [Bronopol]
B.E. (t-24 h) [1, 6]: −0.80

SMILES: CCCCCCCCn1sc2ccccc2c1=O [Compound 1, 2-n-octylbenzoisothiazolin-3-one]
bacterial population versus blank bead controls [3]: significantly lower
B.E. (t-24 h) [1, 6]: 0.48

logP [2]: -1.3
SMILES: O=c1[nH]sc2ccccc12 [Proxel]

SMILES: CCCCCCCCCCCCCCCCn1sc2ccccc2c1=O [Compound 2, 2-n-hexadecyl-benzoisothiazolin-3-one]
B.E. (t-24 h) ([1]; column length 10 cm, biocide immobilised on Amberlite XAD-2, 24 h, 30° C., 13.5 ml/min): 0.84
B.E. (t-24 h) [1, 6]: 0.68 and 1.02 and 0.82 and 0.91
B.E. (t-24 h) ([1]; column length 20 cm, biocide immobilised on Amberlite XAD-4, 24 h): 0.99 and 0.64 and 0.75
B.E. (t-24 h) ([1]; column length 30 cm, biocide immobilised on Amberlite XAD-4, 24 h): 0.64 and 0.86
B.E. (t-24 h) ([1]; column length 40 cm, biocide immobilised on Amberlite XAD-4, 24 h): 0.90

SMILES: CCCCCCCCCCCC[N+](C)(C)CCOc1ccccc1 [Domiphen]
logP [2]: 1.7

SMILES: CCCCCCCCCCCCCCCCCCn1sc(Cl)cc1=O [Compound 4, 5-chloro-2-n-octadecyl-isothiazolin-3-one]
B.E. (t-24 h) [1]: 0.70 and 0.82 and 0.73 and 0.99 and 0.98

P (partition coefficient between octanol and water) ([4]; 25° C., UV/visible absorption): ˜4.5
logP ([4]; n-octanol/water): 0.6
SMILES: Cn1sc2c(c1=O)CCC2 [Promexal]

SMILES: CCCCCCCCn1sccc1=O [Compound 5, 2-n-octyl-isothiazolin-3-one]
B.E. (t-24 h) [1]: 0.80 and 0.60
Present (MS): free biocide in solution [5]: trace
